Results as given in patent publication US9988395B2, “Antiparasitic compositions and methods utilizing substituted 5,5,7,7-tetramethyl-4,5,6,7-tetrahydrothieno[2,3-C]pyridine derivatives” (THE BOARD OF REGENTS OF THE UNIVERSITY OF TEXAS SYSTEM, priority 2015, dated 2018).
Where two headings read alike, the source gives them in different places.

What was measured:
T. cruzi trypomastigotes = assay: Proliferation assay of T. cruzi trypomastigotes inside Human Osteoblasts; type: cell-based, Trypanosoma cruzi; conditions: 48 H treatment
Description: IC50 is median inhibitory concentration. TI is therapeutic index. […] This example further illustrates positives effects of treatment with the present compounds. […] The negative control was treated with 1% DMSO. The positive control was treated with Amp B at […].

T. cruzi Epimastigotes = assay: Activity against T. cruzi epimastigotes; type: cell-based, Trypanosoma cruzi
[1] = test system: L. major Luciferase promastigotes; assay: Antiparasitic activity in L. major Luciferase promastigotes; type: cell-based, Leishmania major; conditions: 72 hr
Excerpt: IC50 is median inhibitory concentration. TI is therapeutic index.

Row | Structure (SMILES) | Mammalian cells LD50 (μM) Raw 264.7 Macrophages (Raw 264.7 Macrophages; mouse, 48 h) | IC50 (T. cruzi trypomastigotes; Trypanosoma cruzi, Osteoblast) | further results
1 | CCOC(=O)c1c(NC(=O)c2cccc(C(F)(F)F)c2F)sc2c1CC(C)(C)NC2(C)C [GP1-04, Ethyl 2-(2-fluoro-3-(trifluoromethyl)benzamido)-5,5,7,7-tetramethyl-4,5,6,7-tetrahydrothieno[2,3-c]pyridine-3-carboxylate] | 17 µM |  | 
2 | CCOC(=O)c1c(NC(=O)c2ccc(F)c(C(F)(F)F)c2)sc2c1CC(C)(C)NC2(C)C [GP1-05, Ethyl 2-(4-fluoro-3-(trifluoromethyl)benzamido)-5,5,7,7-tetramethyl-4,5,6,7-tetrahydrothieno[2,3-c]pyridine-3-carboxylate] | 22 µM |  | 
3 | CCOC(=O)c1c(N)sc2c1CC(C)(C)NC2(C)C [RS1, Ethyl 2-amino-5,5,7,7-tetramethyl-4,5,6,7-tetrahydrothieno[2,3-C]pyridine-3-carboxylate] |  | < 10 µM | 
4 | CCOC(=O)c1c(NC(=O)c2ccc([N+](=O)[O-])s2)sc2c1CC(C)(C)NC2(C)C [RS2, ethyl 5,5,7,7-tetramethyl-2-(5-nitrothiophene-2-carboxamido)-4,5,6,7-tetrahydrothieno[2,3-c]pyridine-3-carboxylate] | ~32 µM | < 1.25 µM | T. cruzi LD50 (μM) Epimastigotes (T. cruzi Epimastigotes): ~7.5 µM
5 | CCOC(=O)c1c(NC(=O)c2cccc(C(F)(F)F)c2)sc2c1CC(C)(C)NC2(C)C [RS3, Ethyl 5,5,7,7-tetramethyl-2-(3-(trifluoromethyl)benzamido)-4,5,6,7-tetrahydro-thieno[2,3-c]pyridine-3-carboxylate] | >40 µM | < 1.25 µM | 
6 | CCOC(=O)c1c(NC(=O)c2c(F)c(F)c(F)c(F)c2F)sc2c1CC(C)(C)NC2(C)C [RS4, Ethyl 5,5,7,7-tetramethyl-2-(perfluorobenzamido)-4,5,6,7-tetrahydrothieno[2,3c]pyridine-3-carboxylate] |  |  | IC50 (T. cruzi trypomastigotes): < 0.156 µM; Mammalian cells LD50 (μM) Raw 264.7 Macrophages (Raw 264.7 Macrophages; macrophage cytotoxicity, text: intraperitoneal macrophages (IPΦ) treated for 48 hrs): ~15 µM; L. major LD50 (μM) Promastigotes [1]: 0.671 µM
7 | CCOC(=O)c1c(NC(=O)c2ccc(C(F)(F)F)cc2)sc2c1CC(C)(C)NC2(C)C [RS5, Ethyl 5,5,7,7-tetramethyl-2-(4-(trifluoromethyl)benzamido)-4,5,6,7-tetrahydrothieno[2,3-c]pyridine-3-carboxylate] |  | 7.5 µM | 
